Measurements: patent US7709636B2, “Pyrazole sulfonylurea compound and herbicide” (Nissan Chemical Industries, Ltd., priority 2004, dated 2010)

Tests used:
[1] = test system: soybean (Glycine max); test: Herbicidal effect test by foliage treatment; format: in vivo; details: 1.6 g/a; foliage treatment after growth of 14 days; 3 weeks after treatment
Description: (§1) Herbicidal Effect Test by Foliage Treatment
(§2) Sterilized diluvial soil was placed in a plastic box having a size of length 21 cm, width 13 cm and depth 7 cm, seeds of Echinochloa crus-galli, Digitaria adscendes, Setaria viridis, Avena fatua, Black-grass, Abutilon avicennae, Ambrosia elatior, Amaranthus retroflexus, Chenopodium album, Polygonum blumei, Stellaria media, Zea mays, Glycine max, Oryza sativa, Triticum aestivum and Beta vulgaris were sown interspatially, covered with about 1.5 cm of soil, and then the plants were grown by putting the box in a green house at 25 to 30° C. After growth of 14 days, the wettable powder of the present invention prepared according to Formulation Example 1 was diluted with water so as to give a predetermined formulation amount, and the foliage part was uniformly treated with the diluted wettable powder by use of a small-sized spray. The herbicidal effect for each plant was investigated 3 weeks after treatment with the herbicide according to the criteria indicated in Test Example 1.

[2] = test system: Triticum aestivum (wheat); test: Herbicidal effect test by foliage treatment; format: in vivo; details: 1.6 g/a; foliage treatment after growth of 14 days; 3 weeks after treatment
Description: as §1, §2

[3] = test system: Stellaria media; test: Herbicidal effect test by foliage treatment; format: in vivo; details: 1.6 g/a; foliage treatment after growth of 14 days; 3 weeks after treatment
Description: as §1, §2

[4] = test system: Ambrosia elatior; test: Herbicidal effect test by foliage treatment; format: in vivo; details: 1.6 g/a; foliage treatment after growth of 14 days; 3 weeks after treatment
Description: as §1, §2

[5] = test system: Avena fatua; test: Herbicidal effect test by foliage treatment; format: in vivo; details: 1.6 g/a; foliage treatment after growth of 14 days; 3 weeks after treatment
Description: as §1, §2

[6] = test system: Beta vulgaris (beet); test: Herbicidal effect test by foliage treatment; format: in vivo; details: 1.6 g/a; foliage treatment after growth of 14 days; 3 weeks after treatment
Description: as §1, §2

[7] = test system: corn (Zea mays); test: Herbicidal effect test by foliage treatment; format: in vivo; details: 1.6 g/a; foliage treatment after growth of 14 days; 3 weeks after treatment
Description: as §1, §2

[8] = test system: Echinochloa crus-galli; test: Herbicidal effect test by foliage treatment; format: in vivo; details: 1.6 g/a; foliage treatment after growth of 14 days; 3 weeks after treatment
Description: as §1, §2

[9] = test system: Black-grass; test: Herbicidal effect test by foliage treatment; format: in vivo; details: 1.6 g/a; foliage treatment after growth of 14 days; 3 weeks after treatment
Description: as §1, §2

[10] = test system: Polygonum blumei; test: Herbicidal effect test by foliage treatment; format: in vivo; details: 1.6 g/a; foliage treatment after growth of 14 days; 3 weeks after treatment
Description: as §1, §2

[11] = test system: Abutilon avicennae; test: Herbicidal effect test by foliage treatment; format: in vivo; details: 1.6 g/a; foliage treatment after growth of 14 days; 3 weeks after treatment
Description: as §1, §2

[12] = test system: Setaria viridis; test: Herbicidal effect test by foliage treatment; format: in vivo; details: 1.6 g/a; foliage treatment after growth of 14 days; 3 weeks after treatment
Description: as §1, §2

[13] = test system: Amaranthus retroflexus; test: Herbicidal effect test by foliage treatment; format: in vivo; details: 1.6 g/a; foliage treatment after growth of 14 days; 3 weeks after treatment
Description: as §1, §2

[14] = test system: Digitaria adscendes; test: Herbicidal effect test by foliage treatment; format: in vivo; details: 1.6 g/a; foliage treatment after growth of 14 days; 3 weeks after treatment
Description: as §1, §2

[15] = test system: Chenopodium album; test: Herbicidal effect test by foliage treatment; format: in vivo; details: 1.6 g/a; foliage treatment after growth of 14 days; 3 weeks after treatment
Description: as §1, §2

[16] = test system: Echinochloa crus-galli; test: Herbicidal effect test in submerged condition by treatment during weed-growth stage (1); format: in vivo; details: 0.64 g/a, treated at 1st to 2nd leaf stage, 3 weeks after treatment
Procedure: (§3) Herbicidal Effect Test in Submerged Condition by Treatment During Weed-Growth Stage (1) After alluvial soil was placed in a styrol cup of 1/30000 are, water was poured therein and mixed, and adjusted to a submerged condition of water depth 4 cm. After seeds of Echinochloa crus-galli, Scirpus juncoides and Monochoria vaginalis were sown in the cup, the plants were grown by putting the cup in a green house at 25 to 30° C. When Echinochloa crus-galli, Scirpus juncoides and Monochoria vaginalis reached 1st to 2nd leaf stage, the wettable powder of the present invention prepared according to Formulation Example 1 was diluted with water so as to give a predetermined formulation amount, and the surface of the water was treated with the diluted wettable powder. The herbicidal effect for each plant was investigated 3 weeks after treatment with the herbicide according to the criteria indicated in Test Example 1.

[17] = test system: Monochoria vaginalis; test: as above; format: in vivo; details: 0.64 g/a, treated at 1st to 2nd leaf stage, 3 weeks after treatment
Procedure: as §3

[18] = test system: Scirpus juncoides; test: as above; format: in vivo; details: 0.64 g/a, treated at 1st to 2nd leaf stage, 3 weeks after treatment
Procedure: as §3

[19] = test system: direct sown rice; test: Herbicidal effect test by foliage treatment; format: in vivo, Oryza sativa; details: 1.6 g/a; foliage treatment after growth of 14 days; 3 weeks after treatment
Description: as §1, §2

[20] = test system: Echinochloa crus-galli; test: Herbicidal effect test in submerged condition by treatment before weed-generation (1); format: in vivo; details: 0.64 g/a, water surface treated on day of sowing, 3 weeks after treatment
Description: (§4) Herbicidal Effect Test in Submerged Condition by Treatment Before Weed-Generation (1)
(§5) After alluvial soil was placed in a styrol cup of 1/30000 are, water was poured therein and mixed, and adjusted to a submerged condition of water depth 4 cm. After seeds of Echinochloa crus-galli, Scirpus juncoides and Monochoria vaginalis were sown in the cup, rice seedlings at 2.5th leaf stage were transplanted. On the day when the seeds were sown, the wettable powder of the present invention prepared according to Formulation Example 1 was diluted with water so as to give a predetermined formulation amount, and the surface of the water was treated with the diluted wettable powder. The plants were grown by putting the cup in a green house at 25 to 30° C., and investigated on herbicidal effect against each weed 3 weeks after treatment with the herbicide according to the following criteria.
(§6) 5 Herbicidal rate 90% or more (almost complete death)
(§7) 4 Herbicidal rate 70% or more and less than 90%
(§8) 3 Herbicidal rate 40% or more and less than 70%
(§9) 2 Herbicidal rate 20% or more and less than 40%
(§10) 1 Herbicidal rate 5% or more and less than 20%
(§11) 0 Herbicidal rate 5% or less (little effect)

[21] = test system: Monochoria vaginalis; test: as above; format: in vivo; details: 0.64 g/a, water surface treated on day of sowing, 3 weeks after treatment
Description: as §4, §5, §6, §7, §8, §9, §10, §11

[22] = test system: Scirpus juncoides; test: as above; format: in vivo; details: 0.64 g/a, water surface treated on day of sowing, 3 weeks after treatment
Description: as §4, §5, §6, §7, §8, §9, §10, §11

[23] = test system: direct sown rice; test: Herbicidal effect test by soil treatment; format: in vivo, Oryza sativa; details: 1.6 g/a, 3 weeks after treatment
Description: (§12) Herbicidal Effect Test by Soil Treatment
(§13) Sterilized diluvial soil was placed in a plastic box having a size of length 21 cm, width 13 cm and depth 7 cm, seeds Echinochloa crus-galli, Digitaria adscendes, Setaria viridis, Avena fatua, Black-grass, Abutilon avicennae, Ambrosia elatior, Amaranthus retroflexus, Chenopodium album, Polygonum blumei, Stellaria media, Zea mays (corn), Glycine max (soybean), Oryza sativa (rice), Triticum aestivum (wheat) and Beta vulgaris (beat) were sown interspatially, covered with about 1.5 cm of soil, and then the wettable powder of the present invention prepared according to Formulation Example 1 was diluted with water so as to give a predetermined formulation amount, and the surface of the soil was uniformly treated with the diluted wettable powder by use of a small-sized spray. The herbicidal effect for each plant was investigated 3 weeks after treatment with the herbicide according to the criteria indicated in Test Example 1.

[24] = test system: soybean (Glycine max); test: Herbicidal effect test by soil treatment; format: in vivo; details: 1.6 g/a, 3 weeks after treatment
Description: as §12, §13

[25] = test system: Stellaria media; test: Herbicidal effect test by soil treatment; format: in vivo; details: 1.6 g/a, 3 weeks after treatment
Description: as §12, §13

[26] = test system: Ambrosia elatior; test: Herbicidal effect test by soil treatment; format: in vivo; details: 1.6 g/a, 3 weeks after treatment
Description: as §12, §13

[27] = test system: Beta vulgaris (beet); test: Herbicidal effect test by soil treatment; format: in vivo; details: 1.6 g/a, 3 weeks after treatment
Description: as §12, §13

[28] = test system: corn (Zea mays); test: Herbicidal effect test by soil treatment; format: in vivo; details: 1.6 g/a, 3 weeks after treatment
Description: as §12, §13

[29] = test system: Echinochloa crus-galli; test: Herbicidal effect test by soil treatment; format: in vivo; details: 1.6 g/a, 3 weeks after treatment
Description: as §12, §13

[30] = test system: Polygonum blumei; test: Herbicidal effect test by soil treatment; format: in vivo; details: 1.6 g/a, 3 weeks after treatment
Description: as §12, §13

[31] = test system: Abutilon avicennae; test: Herbicidal effect test by soil treatment; format: in vivo; details: 1.6 g/a, 3 weeks after treatment
Description: as §12, §13

[32] = test system: Setaria viridis; test: Herbicidal effect test by soil treatment; format: in vivo; details: 1.6 g/a, 3 weeks after treatment
Description: as §12, §13

[33] = test system: Amaranthus retroflexus; test: Herbicidal effect test by soil treatment; format: in vivo; details: 1.6 g/a, 3 weeks after treatment
Description: as §12, §13

[34] = test system: Digitaria adscendes; test: Herbicidal effect test by soil treatment; format: in vivo; details: 1.6 g/a, 3 weeks after treatment
Description: as §12, §13

[35] = test system: Chenopodium album; test: Herbicidal effect test by soil treatment; format: in vivo; details: 1.6 g/a, 3 weeks after treatment
Description: as §12, §13

COc1cc(OC)nc(NC(=O)NS(=O)(=O)c2c(C3=NOCC(CI)O3)c(Cl)nn2C)n1 (centres unmarked) [Compound 2, N-((4,6-dimethoxypyrimidin-2-yl)aminocarbonyl)-3-chloro-4-(5-iodomethyl-5H,6H-1,4,2-dioxadin-3-yl)-1-methylpyrazole-5-sulfonamide]
herbicidal effect, c: soybean (Glycine max) [1]: 4 (Herbicidal rate 70% or more and less than 90%)
herbicidal effect, e: Triticum aestivum (wheat) [2]: 0 (Herbicidal rate 5% or less (little effect))
herbicidal effect, M: Stellaria media [3]: 5 (Herbicidal rate 90% or more (almost complete death))
herbicidal effect, I: Ambrosia elatior [4]: 4 (Herbicidal rate 70% or more and less than 90%)
herbicidal effect, F: Avena fatua [5]: 0 (Herbicidal rate 5% or less (little effect))
herbicidal effect, f: Beta vulgaris (beet) [6]: 4 (Herbicidal rate 70% or more and less than 90%)
herbicidal effect, b: corn (Zea mays) [7]: 4 (Herbicidal rate 70% or more and less than 90%)
herbicidal effect, A: Echinochloa crus-galli [8]: 3 (Herbicidal rate 40% or more and less than 70%)
herbicidal effect, G: Black-grass [9]: 1 (Herbicidal rate 5% or more and less than 20%)
herbicidal effect, L: Polygonum blumei [10]: 0 (Herbicidal rate 5% or less (little effect))
herbicidal effect, H: Abutilon avicennae [11]: 5 (Herbicidal rate 90% or more (almost complete death))
herbicidal effect, E: Setaria viridis [12]: 1 (Herbicidal rate 5% or more and less than 20%)
herbicidal effect, J: Amaranthus retroflexus [13]: 0 (Herbicidal rate 5% or less (little effect))
herbicidal effect, D: Digitaria adscendes [14]: 1 (Herbicidal rate 5% or more and less than 20%)
herbicidal effect, K: Chenopodium album [15]: 4 (Herbicidal rate 70% or more and less than 90%)
herbicidal effect, A: Echinochloa crus-galli [16]: 2 (Herbicidal rate 20% or more and less than 40%)
herbicidal effect, C: Monochoria vaginalis [17]: 4 (Herbicidal rate 70% or more and less than 90%)
herbicidal effect, B: Scirpus juncoides [18]: 4 (Herbicidal rate 70% or more and less than 90%)
herbicidal effect, d: direct sown rice [19]: 0 (Herbicidal rate 5% or less (little effect))
herbicidal effect, A: Echinochloa crus-galli [20]: 4 (Herbicidal rate 70% or more and less than 90%)
herbicidal effect, C: Monochoria vaginalis [21]: 5 (Herbicidal rate 90% or more (almost complete death))
herbicidal effect, B: Scirpus juncoides [22]: 5 (Herbicidal rate 90% or more (almost complete death))
herbicidal effect, d: direct sown rice [23]: 0 (Herbicidal rate 5% or less (little effect))
herbicidal effect, c: soybean (Glycine max) [24]: 0 (Herbicidal rate 5% or less (little effect))
herbicidal effect, M: Stellaria media [25]: 3 (Herbicidal rate 40% or more and less than 70%)
herbicidal effect, I: Ambrosia elatior [26]: 3 (Herbicidal rate 40% or more and less than 70%)
herbicidal effect, f: Beta vulgaris (beet) [27]: 2 (Herbicidal rate 20% or more and less than 40%)
herbicidal effect, b: corn (Zea mays) [28]: 0 (Herbicidal rate 5% or less (little effect))
herbicidal effect, A: Echinochloa crus-galli [29]: 0 (Herbicidal rate 5% or less (little effect))
herbicidal effect, L: Polygonum blumei [30]: 0 (Herbicidal rate 5% or less (little effect))
herbicidal effect, H: Abutilon avicennae [31]: 0 (Herbicidal rate 5% or less (little effect))
herbicidal effect, E: Setaria viridis [32]: 0 (Herbicidal rate 5% or less (little effect))
herbicidal effect, J: Amaranthus retroflexus [33]: 1 (Herbicidal rate 5% or more and less than 20%)
herbicidal effect, D: Digitaria adscendes [34]: 0 (Herbicidal rate 5% or less (little effect))
herbicidal effect, K: Chenopodium album [35]: 4 (Herbicidal rate 70% or more and less than 90%)
